For orientation: IC50 means the concentration at which inhibition is half-maximal.

The source of these data is patent US20200206233A1 (INTEGRAL BIOSCIENCES PRIVATE LIMITED, priority 2018, published 2020).

SMILES strings stand for the structures.

T1 sequence (O75874 whole entry R132H): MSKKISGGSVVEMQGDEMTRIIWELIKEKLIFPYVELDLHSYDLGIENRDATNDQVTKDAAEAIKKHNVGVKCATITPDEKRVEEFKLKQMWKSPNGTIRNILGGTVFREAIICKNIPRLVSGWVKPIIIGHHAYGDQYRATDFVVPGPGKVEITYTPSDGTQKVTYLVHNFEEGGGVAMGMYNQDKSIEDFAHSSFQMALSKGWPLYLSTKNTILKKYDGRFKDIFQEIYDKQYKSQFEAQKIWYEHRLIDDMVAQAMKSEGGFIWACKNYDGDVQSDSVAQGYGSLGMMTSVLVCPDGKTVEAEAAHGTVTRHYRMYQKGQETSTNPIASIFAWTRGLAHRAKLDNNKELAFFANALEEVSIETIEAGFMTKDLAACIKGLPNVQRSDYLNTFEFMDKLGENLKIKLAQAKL

This test concerns the target T1, IDH1 mutant (R132H) (Homo sapiens, UniProt O75874, R132H).
T1 construct: purchased BPS Bioscience 71099-2
Description: Mutant IDH1-R132H Fluorescence Assay (Resazurin based). In kind it is biochemical. To be noted: 10 nM IDH1 R132H, 4 mM α-ketoglutarate, NADPH, 1.5 h at room temperature. Here is the method: IC50 values of compounds against IDH1 mutant (R132H) was determined by Resazurin based Fluorescence assay. Assays were performed in Buffer (25 mM Tris HCl, 150 mM NaCl, 10 mM MgCl2, 0.03% BSA, 2 mM 1-mercaptoethanol) where total reaction volume was 12.5 μL in low-volume 384-well plates (Cat #4511, Corning). Serially diluted compounds (3-fold) were incubated with cocktail of α-ketoglutarate (4 mM; Cat #75892-25G, Sigma), NADPH ([…]; Cat # N1630-100MG, Sigma) and buffer for 5 min, following IDH1 R132H mutant (10 nM; Cat #71099-2, BPS Bioscience) was added and incubated in dark at room temperature for 1.5 h. After 1.5 h, 6.25 μL detection solution containing Resazurin ([…]; (Cat #62758-13-8, Sigma) and Diaphorase (40 ug/ml; Cat # D2197-300UN, Sigma) in buffer was added and incubated for 15 min. Readings were taken in a Synergy Neo Plate reader (BioTek, Winooski) at single excitation of 540 nm and emission at 590 nm respectively.
The % (percent) activity of test samples was calculated as (Sample−Min)×100/(Max−Min). [Max: DMSO control, complete reaction with enzyme with DMSO and Min: No enzyme with DMSO]. Percent inhibition (100−% activity) was fitted to the “four-parameter logistic model” in XLfit for determination of IC50 values.
(The colour change of resazurin is a common sign of viable cells or microbes.)
Turning to `CC(C)[C@H]1COC(=O)N1c1ncnc(N[C@H](C)c2cc3cc(Cl)ccc3[nH]c2=O)n1` [Compound 1.22, (S)-3-(4-((R)-1-(6-chloro-2-oxo-1,2-dihydroquinolin-3-yl)ethylamino)-1,3,5-triazin-2-yl)-4-isopropyloxazolidin-2-one], the IC50 was greater than 30 µM.

As to `CC[C@H]1COC(=O)N1c1nc(C)nc(N[C@@H](C)c2ccc3c(-c4ccccc4)cn(C)c3c2)n1` [Compound 1.101, (S)-4-ethyl-3-(4-methyl-6-((S)-1-(1-methyl-3-phenyl-1H-indol-6-yl)ethylamino)-1,3,5-triazin-2-yl)oxazolidin-2-one], the IC50 worked out at 13.6 µM.

For the compound `C[C@@H](Nc1ncnc(N2CCOC2=O)n1)c1ccc(Oc2ccccc2)cc1` [Compound 1.20], the 50% inhibitory concentration (IC50) is greater than 30 µM.

On to `Cc1nc(N[C@@H](C)c2ccc(Oc3ccccc3)cc2)nc(N2C(=O)OCC2(C)C)n1` [Compound 1.110, (S)-4,4-dimethyl-3-(4-methyl-6-(1-(4-phenoxyphenyl)ethylamino)-1,3,5-triazin-2-yl)oxazolidin-2-one], for which the IC50 amounted to 2.02 µM.

Turning to `CC[C@H]1COC(=O)N1c1nc(C)nc(N[C@@H](C)c2cnc3ccc(Cl)nn23)n1` [Compound 1.69, (S)-3-(4-((S)-1-(6-chloroimidazo[1,2-b]pyridazin-3-yl)ethylamino)-6-methyl-1,3,5-triazin-2-yl)-4-ethyloxazolidin-2-one], the IC50 is greater than 30 µM.

For the compound `CC[C@H]1COC(=O)N1c1nc(C)nc(N[C@H](C)c2cn3cc(Br)ccc3n2)n1` [Compound 1.48, (S)-3-(4-((R)-1-(6-bromoimidazo[1,2-a]pyridin-2-yl)ethylamino)-6-methyl-1,3,5-triazin-2-yl)-4-ethyloxazolidin-2-one], the IC50 was greater than 30 µM.

`CC[C@H]1COC(=O)N1c1nc(C)nc(N[C@@H](C)c2cc(C)c(-c3ccnc(C(F)(F)F)c3)cn2)n1` [Compound 1.54, (S)-4-ethyl-3-(4-methyl-6-((S)-1-(4-methyl-2′-(trifluoromethyl)-3,4′-bipyridin-6-yl)ethylamino)-1,3,5-triazin-2-yl)oxazolidin-2-one]: the IC50 turned out to be 1.21 µM.

For the compound `CC[C@H]1COC(=O)N1c1nc(N[C@@H](C)c2ccc(Oc3ccccc3)cc2)nc(N(C)C)n1` [Compound 1.63, (S)-3-(4-(dimethylamino)-6-((S)-1-(4-phenoxyphenyl)ethylamino)-1,3,5-triazin-2-yl)-4-ethyloxazolidin-2-one], the 50% inhibitory concentration (IC50) turned out to be 2.4 µM.

As to `CC(C)[C@H]1COC(=O)N1c1ncnc(N[C@H](C)c2ccc(Oc3ccccc3)cc2)n1` [Compound 1.8, (S)-4-isopropyl-3-(4-((R)-1-(4-phenoxyphenyl)ethylamino)-1,3,5-triazin-2-yl)oxazolidin-2-one], the IC50 was greater than 30 µM.

For the compound `CC[C@H]1COC(=O)N1c1nc(C)nc(N[C@@H](C)c2ccc3c(ccn3-c3ccccc3)c2)n1` [Compound 1.90, (S)-4-ethyl-3-(4-methyl-6-((S)-1-(1-phenyl-1H-indol-5-yl)ethylamino)-1,3,5-triazin-2-yl)oxazolidin-2-one], the IC50 was 1.54 µM.

Take `CC[C@H]1COC(=O)N1c1nc(C)nc(N[C@@H](C)c2ccc(Nc3ccccc3)cc2)n1` [Compound 1.89, (S)-4-ethyl-3-(4-methyl-6-((S)-1-(4-(phenylamino)phenyl)ethylamino)-1,3,5-triazin-2-yl)oxazolidin-2-one]: the half-maximal inhibitory concentration (IC50) is 1.42 µM.

As for `CC[C@H]1COC(=O)N1c1nc(C)nc(N[C@H](C)c2ccc(OCc3ccccc3)cc2)n1` [Compound 1.72, (S)-3-(4-((R)-1-(4-(benzyloxy)phenyl)ethylamino)-6-methyl-1,3,5-triazin-2-yl)-4-ethyloxazolidin-2-one], the IC50 is greater than 30 µM.

For the compound `Cc1nc(N[C@@H](C)c2ccc(Oc3ccccc3)cc2)nc(N2C(=O)OC[C@@H]2C)n1` [Compound 1.65, (S)-4-methyl-3-(4-methyl-6-((S)-1-(4-phenoxyphenyl)ethylamino)-1,3,5-triazin-2-yl)oxazolidin-2-one], the IC50 amounted to 2.65 µM.

On to `CC[C@H]1COC(=O)N1c1nc(C)nc(N[C@@H](C)c2cc3ccccc3[nH]c2=O)n1` [Compound 1.45, (S)-4-ethyl-3-(4-methyl-6-((S)-1-(2-oxo-1,2-dihydroquinolin-3-yl)ethylamino)-1,3,5-triazin-2-yl)oxazolidin-2-one], for which the IC50 came out at 1.79 µM.

Take `CC(C)[C@H]1COC(=O)N1c1ncnc(N[C@H](C)c2ccc(N3CCN(C)CC3)cn2)n1` [Compound 1.25, (S)-4-isopropyl-3-(4-((R)-1-(5-(4-methylpiperazin-1-yl)pyridin-2-yl)ethylamino)-1,3,5-triazin-2-yl)oxazolidin-2-one]: the IC50 is greater than 30 µM.

With `CC[C@H]1COC(=O)N1c1nc(C)nc(N[C@@H](C)c2ccc(CN3CCN(C(C)=O)CC3)cc2)n1` [Compound 1.98, (S)-3-(4-((S)-1-(4-((4-acetylpiperazin-1-yl)methyl)phenyl)ethylamino)-6-methyl-1,3,5-triazin-2-yl)-4-ethyloxazolidin-2-one], the IC50 was found to be 21.4 µM.

Regarding `CC[C@H]1COC(=O)N1c1nc(C)nc(N[C@H](C)c2ccc(Nc3ccccc3)cc2)n1` [Compound 1.88, (S)-4-ethyl-3-(4-methyl-6-((R)-1-(4-(phenylamino)phenyl)ethylamino)-1,3,5-triazin-2-yl)oxazolidin-2-one], the 50% inhibitory concentration (IC50) is greater than 30 µM.

In the case of `Cc1nc(N[C@H](C)c2cc3cc(Cl)ccc3[nH]c2=O)nc(N2C(=O)OC[C@@H]2[C@H](C)F)n1` [Compound 1.60, (R)-3-(4-((R)-1-(6-chloro-2-oxo-1,2-dihydroquinolin-3-yl)ethylamino)-6-methyl-1,3,5-triazin-2-yl)-4-((S)-1-fluoroethyl)oxazolidin-2-one], the concentration for half-maximal inhibition (IC50) is greater than 30 µM.

As to `CC[C@H]1COC(=O)N1c1nc(C)nc(N[C@H](C)c2cc3cc(C)ccc3[nH]c2=O)n1` [Compound 1.109, (S)-4-ethyl-3-(4-methyl-6-((R)-1-(6-methyl-2-oxo-1,2-dihydroquinolin-3-yl)ethylamino)-1,3,5-triazin-2-yl)oxazolidin-2-one], the IC50 was greater than 30 µM.

As for `CC[C@H]1COC(=O)N1c1nc(C)nc(N[C@@H](C)c2ccc(Oc3ccc(Cl)cc3)c(C)n2)n1` [Compound 1.96, (S)-3-(4-((S)-1-(5-(4-chlorophenoxy)-6-methylpyridin-2-yl)ethylamino)-6-methyl-1,3,5-triazin-2-yl)-4-ethyloxazolidin-2-one], the IC50 is 3.83 µM.

In the case of `CC(C)[C@H]1COC(=O)N1c1ncnc(N[C@@H](C)c2ccc(N3CCN(C)CC3)cn2)n1` [Compound 1.24, (S)-4-isopropyl-3-(4-((S)-1-(5-(4-methylpiperazin-1-yl)pyridin-2-yl)ethylamino)-1,3,5-triazin-2-yl)oxazolidin-2-one], the IC50 was greater than 30 µM.

Take `CC[C@H]1COC(=O)N1c1nc(C)nc(N[C@H](C)c2ccc(Sc3ccc(F)cc3)cc2)n1` [Compound 1.91, (S)-4-ethyl-3-(4-((R)-1-(4-(4-fluorophenylthio)phenyl)ethylamino)-6-methyl-1,3,5-triazin-2-yl)oxazolidin-2-one]: the IC50 was greater than 30 µM.

Consider `CC[C@H]1COC(=O)N1c1nc(C)nc(N[C@H](C)c2ccc(Oc3ccc4ccccc4c3)cc2)n1` [Compound 1.93, (S)-4-ethyl-3-(4-methyl-6-((R)-1-(4-(naphthalen-2-yloxy)phenyl)ethylamino)-1,3,5-triazin-2-yl)oxazolidin-2-one], for which the half-maximal inhibitory concentration (IC50) was greater than 30 µM.

Take `CC[C@H]1COC(=O)N1c1nc(C)nc(N[C@H](C)c2cnc3ccc(Cl)nn23)n1` [Compound 1.70, (S)-3-(4-((R)-1-(6-chloroimidazo[1,2-b]pyridazin-3-yl)ethylamino)-6-methyl-1,3,5-triazin-2-yl)-4-ethyloxazolidin-2-one]: the IC50 is greater than 30 µM.

Regarding `CC[C@H]1COC(=O)N1c1nc(C)nc(N[C@@H](C)c2cc3cc(Cl)cnc3[nH]c2=O)n1` [Compound 1.49, (S)-3-(4-((S)-1-(6-chloro-2-oxo-1,2-dihydro-1,8-naphthyridin-3-yl)ethylamino)-6-methyl-1,3,5-triazin-2-yl)-4-ethyloxazolidin-2-one], the IC50 was greater than 30 µM.

As for `CC[C@H]1COC(=O)N1c1nc(C)nc(N[C@H](C)c2ccc(OCc3ccccn3)cc2)n1` [Compound 1.61, (S)-4-ethyl-3-(4-methyl-6-((R)-1-(4-(pyridin-2-ylmethoxy)phenyl)ethylamino)-1,3,5-triazin-2-yl)oxazolidin-2-one], the IC50 is 17 µM.

As for `CC[C@H]1COC(=O)N1c1nc(C)nc(N[C@@H](C)c2cn3cc(Br)ccc3n2)n1` [Compound 1.47, (S)-3-(4-((S)-1-(6-bromoimidazo[1,2-a]pyridin-2-yl)ethylamino)-6-methyl-1,3,5-triazin-2-yl)-4-ethyloxazolidin-2-one], the IC50 came to 3.18 µM.

With `CC[C@H]1COC(=O)N1c1nc(C)nc(NC(C)(C)c2ccc(Oc3ccccc3)cc2)n1` [Compound 1.111, (S)-4-ethyl-3-(4-methyl-6-(2-(4-phenoxyphenyl)propan-2-ylamino)-1,3,5-triazin-2-yl)oxazolidin-2-one], the IC50 was determined as 2.51 µM.
